In publication PMC11408249, “Non-invasive in vivo imaging of changes in Collagen III turnover in myocardial fibrosis” (npj Imaging, 2024):
Marks after values point to notes of the source that are not given here.

How the values were obtained:
COL3 [1] = biological target: T1, COL3 (Mus musculus, UniProt P08121); experiment: Molecular CMR of COL3 in a murine model of myocardial infarction; assay type: in vivo, mice; settings: control agents, i.v. 0.2 mmol/kg, 30 minutes post-injection, n = 2–3 per group
T1 construct: from tissue; host or cells: infarcted left-ventricular myocardium of female CD1 mice, in vivo
T1 sequence (P08121 155-1219 limits assumed): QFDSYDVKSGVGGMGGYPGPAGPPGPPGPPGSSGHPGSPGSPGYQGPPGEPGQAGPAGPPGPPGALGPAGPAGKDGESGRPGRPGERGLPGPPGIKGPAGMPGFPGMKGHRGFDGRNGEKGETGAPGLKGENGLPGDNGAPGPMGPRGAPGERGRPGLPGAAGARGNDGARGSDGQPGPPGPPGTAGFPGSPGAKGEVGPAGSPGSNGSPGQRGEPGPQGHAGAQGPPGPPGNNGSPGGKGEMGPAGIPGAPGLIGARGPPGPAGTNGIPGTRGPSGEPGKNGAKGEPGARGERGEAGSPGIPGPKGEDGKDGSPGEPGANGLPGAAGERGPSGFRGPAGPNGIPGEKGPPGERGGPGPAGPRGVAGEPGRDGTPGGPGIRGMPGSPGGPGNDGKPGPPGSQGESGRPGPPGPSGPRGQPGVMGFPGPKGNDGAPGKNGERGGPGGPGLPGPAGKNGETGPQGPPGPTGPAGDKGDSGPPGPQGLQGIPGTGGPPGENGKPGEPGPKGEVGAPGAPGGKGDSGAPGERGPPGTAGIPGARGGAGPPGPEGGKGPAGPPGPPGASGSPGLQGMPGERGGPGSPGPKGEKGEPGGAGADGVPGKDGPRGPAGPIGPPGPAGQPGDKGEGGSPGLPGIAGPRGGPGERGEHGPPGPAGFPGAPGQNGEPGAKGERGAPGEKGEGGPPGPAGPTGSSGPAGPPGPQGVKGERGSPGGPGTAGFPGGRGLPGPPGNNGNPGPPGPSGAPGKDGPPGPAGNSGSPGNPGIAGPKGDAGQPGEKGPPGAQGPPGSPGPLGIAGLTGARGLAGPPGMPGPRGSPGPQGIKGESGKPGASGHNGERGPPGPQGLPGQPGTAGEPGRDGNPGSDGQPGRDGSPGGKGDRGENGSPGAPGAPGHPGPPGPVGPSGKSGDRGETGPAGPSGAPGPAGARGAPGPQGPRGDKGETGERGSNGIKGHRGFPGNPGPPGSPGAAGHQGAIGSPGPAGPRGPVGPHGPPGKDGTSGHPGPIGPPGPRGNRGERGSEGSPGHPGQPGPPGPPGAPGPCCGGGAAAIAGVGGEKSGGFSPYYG

[2] = 20 MHz, 37 °C, cited from earlier work
Experimental: Table 1 Relaxivities of monomeric and tetrameric probes bearing CBP1 and CBP2 peptide moieties, in PBS and 0.6 mM human serum albumin (HAS) at 20 MHz and 37 °C | column: r1 mM (mM^−1 s^−1) / PBS; r1 mM (mM^−1 s^−1) / HSA 0.6 mM || To further characterise the molecular characteristics of these probes, the ^1H nuclear magnetic relaxation dispersion profiles (^1H-NMRD) of Gd-DOTAMA-CBP1, Gd-DOTAMA-CBP2 and [Gd-DOTAMA]4-CBP1 were acquired in phosphate buffer saline (PBS) and in 0.6 mM human serum albumin (HSA), at 25 and 37 °C (Supplementary Fig. 3a–c). The profiles obtained were characteristic of small-molecular weight (MW) complexes, even when in the presence of HSA. Table 1 summarises the relaxivity values at 20 MHz and 37 °C, for all probes and for Gadovist[45] a nonpeptide-based (non-targeted) clinically approved contr ...

COL3 [3] = biological target: T2, COL3 (Homo sapiens, UniProt P02461); settings: cited from earlier work
T2 sequence (P02461 154-1221 limits assumed): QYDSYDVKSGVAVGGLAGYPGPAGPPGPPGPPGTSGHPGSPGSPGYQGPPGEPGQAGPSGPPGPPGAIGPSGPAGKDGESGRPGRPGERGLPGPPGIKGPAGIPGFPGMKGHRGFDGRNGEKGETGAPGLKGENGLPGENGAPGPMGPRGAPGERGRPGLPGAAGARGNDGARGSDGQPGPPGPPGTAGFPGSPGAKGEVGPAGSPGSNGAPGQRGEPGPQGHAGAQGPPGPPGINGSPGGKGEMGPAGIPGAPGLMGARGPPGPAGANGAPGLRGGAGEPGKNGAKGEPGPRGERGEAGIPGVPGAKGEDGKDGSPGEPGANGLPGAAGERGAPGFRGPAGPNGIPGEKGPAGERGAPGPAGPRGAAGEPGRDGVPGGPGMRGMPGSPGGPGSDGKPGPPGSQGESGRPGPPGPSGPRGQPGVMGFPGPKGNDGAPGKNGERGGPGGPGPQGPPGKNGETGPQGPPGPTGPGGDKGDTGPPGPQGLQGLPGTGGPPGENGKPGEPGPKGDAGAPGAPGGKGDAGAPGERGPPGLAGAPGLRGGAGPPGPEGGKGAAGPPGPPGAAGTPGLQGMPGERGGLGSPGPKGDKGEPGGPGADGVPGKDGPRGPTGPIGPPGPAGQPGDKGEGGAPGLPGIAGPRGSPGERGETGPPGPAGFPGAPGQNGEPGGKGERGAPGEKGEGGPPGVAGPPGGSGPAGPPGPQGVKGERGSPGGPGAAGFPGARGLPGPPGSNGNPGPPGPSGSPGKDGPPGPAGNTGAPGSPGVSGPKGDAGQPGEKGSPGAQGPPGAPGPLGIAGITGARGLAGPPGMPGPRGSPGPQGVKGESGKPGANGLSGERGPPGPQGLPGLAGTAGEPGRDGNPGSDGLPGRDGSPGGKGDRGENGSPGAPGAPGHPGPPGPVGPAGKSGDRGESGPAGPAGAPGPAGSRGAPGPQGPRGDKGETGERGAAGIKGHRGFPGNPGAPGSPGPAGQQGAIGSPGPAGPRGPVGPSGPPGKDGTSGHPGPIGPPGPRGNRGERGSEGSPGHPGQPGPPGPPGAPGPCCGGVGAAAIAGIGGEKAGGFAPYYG
Description: (§1) The two peptides, DARKSEVQK (Collagen Binding Probe 1, CBP1) and TEFPLRMRDWLKN (CBP2), were identified from reported protein-protein interaction studies between collagen and other proteins[41],[43]. […] The TEFPLRMRDWLKN peptide is part of the secreted protein acidic and rich cysteine (SPARC) that binds to fibrillary collagens. The binding interaction between SPARC and collagens regulates collagen fibrillogenesis ...

[4] = test system: COL3-induced platelet aggregation; settings: cited from earlier work
Description: as §1

COL3-rich fibres = biological target: T3, COL3-rich fibres (Mus musculus, UniProt P08121); experiment: Tissue co-localisation of fluorescent probe with COL3 fibres; set-up: species or system mice; settings: murine model of vascular remodelling
T3 construct: Signal enhancement seen on the MRI coincided with COL3 fibres detected by histology; from tissue; host or cells: remodelled abdominal aortic wall of male ApoE-/- mice, in vivo and in excised sections
T3 sequence (P08121 155-1219 limits assumed): T1 sequence (P08121 155-1219 limits assumed)
Description: (§2) The monomeric molecular probes ending with a N-terminus free DOTAMA chelator and with a C-terminus free carboxylic group were custom synthesised by Peptide Synthetics Ltd (Hampshire, United Kingdom) with a purity of >95%. The DOTAMA collagen-binding peptides were complexed in house with Gd(III) to obtain a contrast agent for MR molecular imaging, or with Eu(III) for in vitro binding studies using Time-Resolved Fluorescence (TRF) plate assays, or ^68Ga(III) for PET biodistribution studies. Metal complexation of the DOTAMA derivatives was performed in-house, by reacting the desired lanthanide ion (Gd^3+, Eu^3+) in a 1.05:1 L:M molar ratio at pH 5.5 and room temperature. Reaction evolution was confirmed by xylenol orange method. Upon reaction competition, the pH was adjusted to 7 and the samples were lyophilised and stored at −20 °C. The final concentration of the Gd(III) and Eu(III) complex solutions was assessed by ICP-OES and/or BMS. For tissue co-localisation experiments, the CBP1 was also synthesised in the fluorescently labelled form by conjugating a Rhodamine B derivative to its N-terminus (compound Rh-CBP1).

COL1 fibres = biological target: T4, COL1 fibres (Mus musculus, UniProt P11087+Q01149); experiment: Tissue co-localisation of fluorescent probe with COL1 fibres; set-up: species or system mice; settings: aortic tissue, murine model of vascular remodelling
T4 construct: from tissue; host or cells: sections of the remodelled aortic wall of ApoE-/- mice
Description: as §2

T4 sequence (P11087 152-1207 limits assumed): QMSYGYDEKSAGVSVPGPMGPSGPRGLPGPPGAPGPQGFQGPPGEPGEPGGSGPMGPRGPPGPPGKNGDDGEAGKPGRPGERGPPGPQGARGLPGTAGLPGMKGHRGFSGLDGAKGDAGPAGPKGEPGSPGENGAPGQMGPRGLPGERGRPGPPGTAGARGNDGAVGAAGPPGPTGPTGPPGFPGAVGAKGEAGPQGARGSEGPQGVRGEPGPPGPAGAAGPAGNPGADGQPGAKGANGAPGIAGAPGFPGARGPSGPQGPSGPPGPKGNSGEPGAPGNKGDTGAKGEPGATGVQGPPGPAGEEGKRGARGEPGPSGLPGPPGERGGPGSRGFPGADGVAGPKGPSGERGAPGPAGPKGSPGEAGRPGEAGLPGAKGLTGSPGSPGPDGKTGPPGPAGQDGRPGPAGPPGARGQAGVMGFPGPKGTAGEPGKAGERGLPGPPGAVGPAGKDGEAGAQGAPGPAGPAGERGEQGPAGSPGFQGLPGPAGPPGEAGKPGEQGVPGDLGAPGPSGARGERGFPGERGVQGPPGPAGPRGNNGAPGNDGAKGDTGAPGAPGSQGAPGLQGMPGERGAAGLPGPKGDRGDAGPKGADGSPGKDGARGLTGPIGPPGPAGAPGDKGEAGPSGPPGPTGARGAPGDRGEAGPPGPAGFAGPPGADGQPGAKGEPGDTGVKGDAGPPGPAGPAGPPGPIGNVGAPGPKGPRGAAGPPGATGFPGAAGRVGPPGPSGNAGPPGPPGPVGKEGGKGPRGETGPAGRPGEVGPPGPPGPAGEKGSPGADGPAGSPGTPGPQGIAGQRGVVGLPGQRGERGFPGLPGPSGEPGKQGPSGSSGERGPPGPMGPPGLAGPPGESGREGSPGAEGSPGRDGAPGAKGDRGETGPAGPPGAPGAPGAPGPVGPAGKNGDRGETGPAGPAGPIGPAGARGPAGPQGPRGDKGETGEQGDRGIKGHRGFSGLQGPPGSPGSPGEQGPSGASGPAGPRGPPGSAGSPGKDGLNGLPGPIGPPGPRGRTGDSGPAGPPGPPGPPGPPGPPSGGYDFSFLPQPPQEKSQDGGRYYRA
T4 sequence (Q01149 86-1125 limits assumed): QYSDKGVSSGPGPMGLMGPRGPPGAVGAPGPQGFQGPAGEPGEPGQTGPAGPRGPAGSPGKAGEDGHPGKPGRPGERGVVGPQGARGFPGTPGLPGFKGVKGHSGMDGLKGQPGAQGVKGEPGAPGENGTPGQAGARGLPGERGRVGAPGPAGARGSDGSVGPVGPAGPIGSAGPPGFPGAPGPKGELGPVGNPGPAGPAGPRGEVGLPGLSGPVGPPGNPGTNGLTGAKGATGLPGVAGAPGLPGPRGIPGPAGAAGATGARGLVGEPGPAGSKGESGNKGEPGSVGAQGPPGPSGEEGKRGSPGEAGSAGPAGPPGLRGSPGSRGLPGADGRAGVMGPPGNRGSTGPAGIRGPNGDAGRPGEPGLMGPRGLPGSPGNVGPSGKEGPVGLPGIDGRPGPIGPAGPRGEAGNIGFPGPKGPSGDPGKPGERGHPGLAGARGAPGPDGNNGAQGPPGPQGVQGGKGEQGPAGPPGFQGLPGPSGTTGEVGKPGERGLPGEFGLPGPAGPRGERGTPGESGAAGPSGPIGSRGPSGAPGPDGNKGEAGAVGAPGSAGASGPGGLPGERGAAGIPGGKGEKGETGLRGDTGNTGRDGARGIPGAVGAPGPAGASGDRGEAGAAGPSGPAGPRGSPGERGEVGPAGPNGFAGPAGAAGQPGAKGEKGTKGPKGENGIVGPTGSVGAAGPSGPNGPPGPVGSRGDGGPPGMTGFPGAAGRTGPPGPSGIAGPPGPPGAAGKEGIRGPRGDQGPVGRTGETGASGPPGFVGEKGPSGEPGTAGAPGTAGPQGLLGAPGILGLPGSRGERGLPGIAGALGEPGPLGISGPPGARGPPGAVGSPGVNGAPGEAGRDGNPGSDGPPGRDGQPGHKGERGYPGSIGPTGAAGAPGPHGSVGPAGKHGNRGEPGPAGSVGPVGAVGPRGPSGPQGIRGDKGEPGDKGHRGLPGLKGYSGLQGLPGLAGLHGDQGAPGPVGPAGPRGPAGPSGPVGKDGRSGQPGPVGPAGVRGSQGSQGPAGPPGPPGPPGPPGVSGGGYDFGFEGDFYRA

Q: What does the source list for `O=C([O-])CN1CCN(CC(=O)[O-])CCN([C@H](CO)[C@H](O)CO)CCN(CC(=O)[O-])CC1.[Gd+3]` (racemic) [Gadovist]?
A: signal enhancement in the infarct, both timepoints after MI (in words) (COL3 [1]): No enhancement; r1 in PBS ([2]; column PBS): 3.7 mM⁻¹ s⁻¹; r1 (column HSA 0.6 mM) ([2]; in non-sterile bovine plasma (albumin 0.64 to 0.82 mmol/L)): 6.1* mM^−1 s^−1

Q: For DARKSEVQK [CBP1], which “binding affinity towards COL3 compared with COL1 (in words)” value (COL3 [3]) is on record?
A: Its value is “higher binding affinity towards COL3 than COL1”.

Q: And the “effect on COL3-induced platelet aggregation (in words)” value [4]?
A: Its value is “inhibit”.

Q: Which results are given for “DARKSEVQK [rhodamine-labelled CBP1 analogue probe, CBP1 in fluorescently labelled form, Rhodamine B derivative conjugated to its N-terminus]”?
A: co-localisation with COL3-rich fibres within the remodelled aortic wall (in words) (COL3-rich fibres): co-localisation of the fluorescent probe with COL3-rich fibres; co-localisation to COL1 fibres (in words) (COL1 fibres): no co-localisation
